We go through one compound from paper PMC4326489, “Efficacy and pharmacokinetic evaluation of a novel anti-malarial compound (NP046) in a mouse model” (Malaria Journal, 2015).

Molecules are shown by their SMILES. Values joined by “and” are separate entries in the source; they are usually repeats but may differ in a detail not shown here. Equal entries are not always repeated. Where two headings read alike, the source gives them in different places.

As a reminder, the Vd is the apparent volume that relates the amount in the body to the concentration in plasma or blood. Higher therefore signals wide distribution into tissue. One may read the Tmax as the time at which the peak concentration occurs. As usually defined, the bioavailability is dose-corrected exposure relative to a reference, in per cent. Read a low bioavailability as little systemic uptake. For orientation: Cmax means the highest concentration seen after dosing.

Data set [1] is described as follows: In vivo PK evaluation in mice (blood, LC-MS/MS, non-compartmental analysis). The settings on record: for concentration at 7 h: read-out: mean blood concentration at seven hours after dosing. Also noted: species or system male C57BL/6 mice. How it is done:
The in vivo PK properties of NP046 were evaluated following oral (50 and 10 mg/kg) and IV (5 mg/kg) administration of the compound in water to male C57BL/6 mice (n = 5). Blood samples were collected via tail bleeding in heparinized tubes at predetermined sampling times on ice, and were stored at -80°C until analysis. Despite the critical problem of obtaining numerous blood samples from a mouse without compromising the health/safety of the animal, blood samples at all the sampling times, i.e. 0.17, 0.5, 1, 3, 5 and 7 hours for the IV dose groups, and 0.5, 1, 3, 5 and 7 hours for the oral dose groups were collected from each mouse. The extraction volume during sample analysis was targeted at the lowest possible volume (20 μl) thereby minimizing the total volume of blood harvested from the animal.
Blood samples collected from mice following the administration of NP046 together with the calibration standards (STDs) and quality controls (QCs) of NP046 were analyzed using a validated LC-MS/MS assay (for details of the LC-MS/MS assay see Additional file 2). Concentration vs time profiles were constructed and using Summit PK software the data were processed to obtain the PK properties of NP046.
Blood samples collected from mice after the administration of NP046, together with the calibration standards (STDs) and quality controls (QCs), were analysed using a fully validated LC-MS/MS assay. NP046 concentrations were detectable for up to seven hours after oral and IV dosing. Concentration vs time profiles (Figures 3 and 4) were constructed and the data processed with Summit PK software (non-compartmental analysis) to obtain the PK parameters as presented in Table 2. The LC-MS/MS method performed very well; NP046 concentrations in the mice were detectable for up to seven hours after both 50 and 10 mg/kg oral dosing, with mean concentrations of 0.05 and 0.02 μM, respectively.

Data set [2] in a line: Metabolic stability in human liver microsomes. It counts as in vitro ADME. The settings on record: 0-60 minutes, read-out: in vitro intrinsic clearance. How it is done: Metabolism is an enzymatic process in which a drug is chemically modified into polar metabolites that can be more readily excreted from the body. Metabolism occurs mainly in the liver, and the intestine. The metabolic stability of NP046 was determined in human and mouse liver microsomes using a multiple-time-point method at 0, 5, 10, 30, and 60 minutes [for the methodology see Additional file 5].
Summary of the assay method for the determination of microsomal stability:
The assay method was adopted from Obach, 1999, Giuliano et al., 2005, and Naritomi et al., 2001, with a slight modification.
The liver microsome (human and mouse) was thawed at 37 °C, and diluted to 0.4 mg/ml in a preheated (at 37 °C) 0.1 M phosphate buffer.
The primary stock solutions (10 mM) of the controls and test compounds were diluted as follows: first in DMSO to obtain 400 µM solutions followed by dilution in phosphate buffer to 40 µM, and were vortex mixed well by vortexing at each step of dilution.
A reaction premix (in triplicate for each control and test compound) were prepared by mixing 15 µl of the 40 µM solution with 530 µl of 0.4 mg/ml microsome mixture in a premix plate, and mixed carefully using a plate shaker. […]
The intrinsic clearance (ml/min/kg) was calculated using the equation (Obach et al., 1997): […]
For orientation: Microsomes from liver hold many membrane-bound enzymes, among them those of drug oxidation.

Data set [3] is described as follows: Lipophilicity, Log D by scaled-down shake-flask method (octanol/PBS). Format: physicochemical. The settings on record: pH 7.4, read-out: Log D7.4. How it is done: Lipophilicity is a compound’s tendency to partition into a non-polar lipid matrix versus an aqueous matrix. It is an important property of a drug which has a significant influence on the drug ADME/tox properties as well as its biological activity. […].
Stock solutions of NP046 and controls in DMSO (10 mM) were prepared and an aliquot of each phase (octanol/PBS) was analysed by an HPLC-Diode array detector (DAD) method. Chromatographic separation was achieved on a Phenomenex® Kinetex C18 (50 × 2.1 mm i.d. 2.6 μm) column with a gradient elution, using mobile phase (A) 5 mM ammonium format-acetonitrile (95:5, v/v) and (B) 5 mM ammonium format-acetonitrile (5:95, v/v). The Log D values were calculated using the analyte peak areas obtained from each phase (Octanol/PBS) according to the following equation [12]: [drawing 2]

The mark [4] stands for this setting: male, C57BL/6, whole blood, IV 5 mg/kg, mouse.
Setting [5] is: male, C57BL/6, whole blood, oral 10 mg/kg, mouse.
Where [6] appears, read: male, C57BL/6, whole blood, oral 50 mg/kg, mouse.

Turning to `Oc1cc(CCCc2ccc(F)cc2)ccc1CN1CCCCC1` [NP046, 5-(3-(4-fluorophenyl)propyl)-2-(piperidin-1-ylmethyl)phenol], the “AUC 0 - ∞” value was 248 ± 12.6 µmol·min/L in data set [1] (IV 5 mg/kg, mouse blood); 30 µmol·min/L and 30 ± 14.7 µmol·min/L in data set [1] (oral 10 mg/kg, mouse blood, 10 mg/kg); 80 µmol·min/L and 80 ± 8.8 µmol·min/L in data set [1] (oral 50 mg/kg, mouse blood, 50 mg/kg). Also, the half-life in data set [1] (male, C57BL/6, whole blood, other: oral and IV (range over both), range over oral (50 and 10 mg/kg) and IV (5 mg/kg) groups, mouse, read-out: mean half-life) was 186 to 264 min; in data set [1] (male, C57BL/6, whole blood, IV 5 mg/kg, mouse blood, mean ± S.E.M, n = 5, read-out: Apparent t 1/2 (converted)), 192 ± 21 min; in data set [1] (male, C57BL/6, whole blood, oral 10 mg/kg, mouse blood, mean ± S.E.M, n = 5, read-out: Apparent t 1/2 (converted)) it was 186 ± 27.6 min; in data set [1] (male, C57BL/6, whole blood, oral 50 mg/kg, mouse blood, mean ± S.E.M, n = 5, read-out: Apparent t 1/2 (converted)) it was 264 ± 36 min. The Vd in data set [1] (setting [4]) amounted to 16.9 ± 1.3 L/kg. Moreover, the clearance in data set [1] (male, C57BL/6, whole blood, IV 5 mg/kg, mouse, read-out: Blood CL total) was 62.2 ± 3 mL/min/kg. Moreover, the figures for the concentration at 7 h in data set [1] (setting [4]), in data set [1] (setting [5]) and in data set [1] (setting [6]) were 140 nM, 20 nM and 50 nM, respectively. For the same compound, the time of peak concentration (Tmax) in data set [1] (setting [5]) was 48 min; in data set [1] (setting [6]), 30 min. Further, the bioavailability in data set [1] (setting [5]) stood at 6 ± 2.9%; in data set [1] (setting [6]), 3.2 ± 0.47%. For the same compound, the Cmax in data set [1] (male, C57BL/6, whole blood, oral 10 mg/kg, mouse blood) was 130 ± 60 nM; in data set [1] (male, C57BL/6, whole blood, oral 50 mg/kg, mouse blood), 470 ± 100 nM. Besides, the microsomal CLint at 0.99 µM in data set [2] is 119 µL/min/mg. Besides, in data set [3], the logD is 2.6.
